Experimental data: patent US6620793B2, “Therapeutic use of ganglioside GM1 in the treatment of spinal cord injury” (Fidia Farmaceutici S.p.A., priority 1991, dated 2003)
Where “and” joins values, the source holds several entries; their conditions need not be identical. Equal entries are not always repeated.

Columns and labels:
[1] = Solubility of purified GM1 sodium salt; assay type: physicochemical
Text: The compound obtained after this purification has the following chemical characteristics and specifications:
Soluble in water, methanol-water and methanol-chloroform.

[2] = tested on: patients with spinal cord injury; assay: Randomized placebo-controlled double-blind spinal cord injury GM1 trial: ASIA motor score
Text: This study was designed as a pilot study to test whether the neurologic recovery in humans after a spinal-cord injury could be altered by adding monosialbtetrahexosylganglioside (GM1) ganglioside beyond the routine medical and surgical care with which these trauma patients are initially treated.
A prospective, randomized, placebo-controlled, double-blinded spinal cord injury GM1 ganglioside drug trial was completed. Of the 37 patients, 34 patients (23 cervical and 11 thoracic injuries) who were randomly assigned to a treatment group and who followed the test drug protocol and completed the one year follow-up period, 16 patients were included in the GM1 group and 18 were in the placebo group.
The first dose of study drug was administered within 72 hours of the injury and then 17 to 29 additional 5 ml daily injections of 100 mg GM1 or placebo were given. The treatment (100 mg of GM1 sodium salt or placebo) was administered duly by the intravenous route for a total of 18-32 doses, with the first dose taken within 72 hours of the injury.
The complete composition of the GM1 ganglioside used in the study (Sygen, Fidia, Abano Terme, Italy) is 100 mg of GM1 sodium salt, 12.7 mM; 1.25 mg of sodium dihydrogen phosphate dihydrate, 1.6 mM; 15.0 mg of disodium hydrogen phosphate dodecahydrate, 8.4 mM; 40.0 mg of sodium chloride, 137.9 nM; and a quantity of water sufficient to yield an isotonic solution with a total volume of 5 ml for injection. The placebo vials were identical in appearance and composition, except that the GM1 was absent. Most of the test drug was administered by injection through an intravenous heparin lock. Some of the first few injections were given by an intravenous catheter, and occasionally, when the heparin lock was nonfunctional, a single direct-puncture intravenous injection was used.
The severity of spinal-cord injury and its subsequent recovery were quantified by serial measurement with both the Frankel scale and the American Spinal Injury Association (ASIA) motor score. Each measurement was made at the time of the first contact in the emergency room, at entry into the study, then twice per week for the first 4 weeks and after 2, 3, 6 and 12 months.
The second clinical scale used, that is the ASIA motor score, provides a quantifiable index of nerve-muscle functionality. More exactly, this scale has a range of 0 (complete quadriplegia) to 100 (normal motor function). Five key muscles in each extremity (the biceps, wrist extensors, triceps, flexor profundus, and hand intrinsics in the upper extremity, and the iliopsoas, quadriceps, tibialis anterior, extensor hallucis longus, and gastrocnemius in the lower extremity) are assessed on a scale for strength from 0 to 5 points in which 0 (absent) denotes total paralysis, 1 (trace) palpable or visible penetration, 2(poor) active movement through a range of motion in which gravity is not involved, 3 (fair) active movement through a range of motion against gravity, 4 (good) active movement through a range of motion against resistance, and 5 normal. The ASIA motor score is the sum of the scores for muscle strength in these 20 motor groups.
Furthermore, to better analyze the GM1 effect on muscular functionality, the 20 individual muscle groups in each patient were subdivided into three categories at entry: those initially paralyzed (a motor score of 0), those initially paretic (a motor score of 1 through 4), and those functioning normally (a motor score of 5).

[3] = tested on: patients with spinal cord injury; assay: Randomized placebo-controlled double-blind spinal cord injury GM1 trial: Frankel grade; assay type: in vivo, humans
Text: The first clinical scale used, that is the Frankel classification system, is extremely important because it provides a very relevant clinical index of neurological improvement of the patients.
More precisely, the Frankel classification system separates neurologic disability into five ordinal grades, according to the type and completeness of neurologic function remaining below the level of the spinal-cord injury, as follows: grad A, complete neurclogic injury; grade B, only sensation preserved; grade C, nonfunctional motor ability preserved; grade D, functional motor ability preserved; and grade E, normal motor function. The letters designating each grade were used by Frankel in his original description of this scale.

CCCCCCCCCCCCCC=CC(O)C(COC1OC(CO)C(OC2OC(CO)C(OC3OC(CO)C(O)C(OC4OC(CO)C(O)C(O)C4O)C3NC(C)=O)C(OC3(C(=O)[O-])CC(O)C(NC(C)=O)C(C(O)C(O)CO)O3)C2O)C(O)C1O)NC(=O)CCCCCCCCCCCCCCCCC.[Na+] (stereo not drawn) [GM1, Monosialotetrahexosylganglioside, sodium salt]
Solubility ([1]; in methanol, acetone, chloroform, ether and hexane): Virtually insoluble | Solubility ([1]; in water, methanol-water and methanol-chloroform): Soluble | Difference in improvement in ASIA motor score between groups, unadjusted ([2]; GM1 versus placebo, one year, mean ± SD, n=34, sodium salt): 15.3 and 15.3 ± 25.6 | Improvement in mean ASIA motor score ([2]; all patients, entry to one-year follow-up, mean ± SD, n=16): 36.9 ± 28.2 | Mean ASIA motor score at follow-up ([2]; all patients, one-year follow-up, mean ± SD, n=16): 62.8 ± 26.8 | Mean ASIA motor score at entry ([2]; all patients, study entry (baseline), mean ± SD, n=16, sodium salt): 25.9 and 25.9 ± 21.8 | Patients with a greater degree of ASIA motor recovery than any patient assigned to placebo ([2]; entry to one-year follow-up): three | Patients with motor recoveries of more than 20 points in ASIA motor score (number) ([2]; entry to one-year follow-up, placebo 7 of 18): 11 of 16 | Patients with motor recoveries of more than 20 points in ASIA motor score (percent) ([2]; entry to one-year follow-up, placebo 38.9 percent): 68.8% | Patients with no recovery in ASIA motor score ([2]; entry to one-year follow-up, placebo six patients): one | Mean motor recovery in ASIA motor score ([2]; entry to score after one year, 95 percent CI 21.9 to 51.9): 36.9 points | Muscle groups paralyzed at entry that regained useful-to-normal motor function (percent) ([2]; motor score 0 at entry to 3 to 5 after one year, placebo 25.3 percent): 51.7% | Muscle groups paralyzed at entry that regained useful-to-normal motor function (number) ([2]; motor score 0 at entry to 3 to 5 after one year, placebo 49 of 194): 107 of 207 | Muscle groups paralyzed at entry that remained paralyzed (percent) ([2]; motor score 0 at entry, after one year, placebo 65.5 percent): 30.9% | Muscle groups paralyzed at entry that remained paralyzed (number) ([2]; motor score 0 at entry, after one year, placebo 127 of 194): 64 of 207 | Patients with at least one muscle group paralyzed at entry that improved to a motor score of 3 or more (number) ([2]; one-year follow-up, post hoc, placebo 8 of 18, P=0.039 Fisher's exact test): 13 of 16 | Patients with at least one muscle group paralyzed at entry that improved to a motor score of 3 or more (percent) ([2]; one-year follow-up, post hoc, placebo 44.4 percent, P=0.039 Fisher's exact test): 81.3% | Patients improved by two or more Frankel grades who were in the GM1 group ([3]; after one year, 100 mg GM1 i.v. daily, 18-32 doses, 8 of 34 patients improved overall): seven of eight | Improvement with respect to Frankel grade versus placebo ([3]; entry to one year, P=0.034 Cochran-Mantel-Haenszel chi-square test): improved more than the placebo-treated patients | Patients improved by two or more Frankel grades among those who had room to improve (number) ([3]; one year, placebo 1 of 14, P=0.033 Fisher's exact test, two-tailed): 7 of 14 | Patients improved by two or more Frankel grades among those who had room to improve (percent) ([3]; one year, placebo 7.1 percent, P=0.033 Fisher's exact test): 50%
